Patent publication US7572753B2 (priority 2005, dated 2009)

Test system: Pyricularia oryzae
Type: in vivo
Details: 300 ppm, greenhouse foliar application spray on rice (var. Lemont) plants, inoculated within 24 hours from spraying

SMILES: N#CCn1nnc(-c2ccccc2)n1 [Example 1, 5-phenyl-2H-tetrazole-2-acetonitrile]
- Percent (%) disease control, Rice Blast: 70%
